Read-outs that look alike come from different tables or passages of the source.
What was measured:
[1] = tested on: Mycosphaerella graminicola; Anamorph: Zymoseptoria tritici; test: Fungicidal activity: Leaf Blotch of Wheat (SEPTTR), wheat seedlings; type: in vivo; settings: Low Volume (121.5 g/H), wheat
Experimental: Example A: Evaluation of Fungicidal Activity: Leaf Blotch of Wheat (Mycosphaerella graminicola; Anamorph: Zymoseptoria tritici; Bayer Code […]) Technical grades of materials were dissolved in acetone, which were then mixed with nine volumes of water containing 110 ppm Triton X-100. The fungicide solutions were applied onto wheat seedlings using an automated booth sprayer to run-off. All sprayed plants were allowed to air dry prior to further handling. All fungicides were evaluated using the aforementioned method for their activity vs. all target diseases, unless stated otherwise. Wheat leaf blotch and brown rust activity were also evaluated using track spray applications, in which case the fungicides were formulated as EC formulations, containing 0.1% Trycol 5941 in the spray solutions. Wheat plants (variety Yuma) were grown from seed in a greenhouse in 50% mineral soil/50% soil-less Metro mix until the first leaf was fully emerged, with 7-10 seedlings per pot. These plants were inoculated with an aqueous spore suspension of Zymoseptoria tritici either prior to or after fungicide treatments. After inoculation the plants were kept in 100% relative humidity (one day in a dark dew chamber followed by two to three days in a lighted dew chamber at 20° C.) to permit spores to germinate and infect the leaf. The plants were then transferred to a greenhouse set at 20° C. for disease to develop. When disease symptoms were fully expressed on the 1st leaves of untreated plants, infection levels were assessed on a scale of 0 to 100 percent disease severity. Percent disease control was calculated using the ratio of disease severity on treated plants relative to untreated plants.

[2] = tested on: Puccinia triticina; test: Fungicidal activity: Wheat Brown Rust (PUCCRT), wheat seedlings; type: in vivo; settings: Low Volume (121.5 g/H)
Experimental: Technical grades of materials were dissolved in acetone, which were then mixed with nine volumes of water containing 110 ppm Triton X-100. The fungicide solutions were applied onto wheat seedlings using an automated booth sprayer to run-off. All sprayed plants were allowed to air dry prior to further handling. All fungicides were evaluated using the aforementioned method for their activity vs. all target diseases, unless stated otherwise. Wheat leaf blotch and brown rust activity were also evaluated using track spray applications, in which case the fungicides were formulated as EC formulations, containing 0.1% Trycol 5941 in the spray solutions. Wheat plants (variety Yuma) were grown from seed in a greenhouse in 50% mineral soil/50% soil-less Metro mix until the first leaf was fully emerged, with 7-10 seedlings per pot. These plants were inoculated with an aqueous spore suspension of Zymoseptoria tritici either prior to or after fungicide treatments. After inoculation the plants were kept in 100% relative humidity (one day in a dark dew chamber followed by two to three days in a lighted dew chamber at 20° C.) to permit spores to germinate and infect the leaf. The plants were then transferred to a greenhouse set at 20° C. for disease to develop. When disease symptoms were fully expressed on the 1st leaves of untreated plants, infection levels were assessed on a scale of 0 to 100 percent disease severity. Percent disease control was calculated using the ratio of disease severity on treated plants relative to untreated plants. Example B: Evaluation of Fungicidal Activity: Wheat Brown Rust (Puccinia triticina; Synonym: Puccinia recondita f. sp. tritici; Bayer Code PUCCRT) Wheat plants (variety Yuma) were grown from seed in a greenhouse in 50% mineral soil/50% soil-less Metro mix until the first leaf was fully emerged, with 7-10 seedlings per pot. These plants were inoculated with an aqueous spore suspension of Puccinia triticina either prior to or after fungicide treatments. After inoculation the plants were kept in a dark dew room at 22° C. with 100% relative humidity overnight to permit spores to germinate and infect the leaf. The plants were then transferred to a greenhouse set at 24° C. for disease to develop. Fungicide formulation, application and disease assessment followed the procedures as described in the Example A.

Compound	melting point	pest or weed control at 121.5 g/ha ([1]; 24 h, 1 Day Protectant, read-out: SEPTTR disease control rating, 1DP)	pest or weed control at 121.5 g/ha ([1]; 72 h, 3 Day Curative, read-out: SEPTTR disease control rating, 3DC)	pest or weed control at 121.5 g/ha ([2]; 24 h, 1 Day Protectant, read-out: PUCCRT disease control rating, 1DP)	pest or weed control at 121.5 g/ha ([2]; 72 h, 3 Day Curative, read-out: PUCCRT disease control rating, 3DC)
C[C@@H]1OC(=O)[C@@H](NC(=O)OC(C)(C)C)CCOC[C@H]1O [Compound 24, tert-butyl ((3R,4S,7S)-3-hydroxy-4-methyl-6-oxo-1,5-dioxonan-7-yl)carbamate]	148 to 152 °C	–	–	–	–
CC(C)CO[C@@H]1COCC[C@H](NC(=O)OC(C)(C)C)C(=O)O[C@H]1C [Compound 29]	99 to 103 °C	–	–	–	–
C[C@@H]1OC(=O)[C@@H](NC(=O)OC(C)(C)C)CCOC[C@H]1OCCCC(F)(F)F [Compound 30]	80 to 83 °C	–	–	–	–
COc1ccnc(C(=O)N[C@H]2CCOC[C@@H](OCCCC(F)(F)F)[C@H](C)OC2=O)c1OC(C)=O [Compound 101]	43 to 48 °C	< 70%	< 70%	> 70%	> 70%
